# Source: US9365576B2, “Pyrrolopyrrolidinone compounds” (Novartis AG, priority 2012, dated 2016)
# Target: human MDM2 protein (amino acids 2-188) (Homo sapiens (Human), UniProt Q00987)
# Assay: TR-FRET assay, p53-MDM2 Assay 2 (modified)
# Format: binding
# Conditions: TR-FRET; 0.1 nM MDM2, 0.1 nM Europium labeled streptavidin, Tecan genios Pro reader; read-out: IC50 p53-MDM2 Assay 2
# Procedure, shortened: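 IC50 values were curve-fitted from the time-resolved 665/620 nm emission ratio after 340 nm excitation. The assay combined 0.625 nM europium-streptavidin donor with 1.25 nM C-terminally biotinylated MDM2 2–188 (15 min, RT), followed by 15 min with 10 nM Cy5-labeled p53 18–26 acceptor peptide.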
# Chain of human MDM2 protein (amino acids 2-188) (Q00987 2-188): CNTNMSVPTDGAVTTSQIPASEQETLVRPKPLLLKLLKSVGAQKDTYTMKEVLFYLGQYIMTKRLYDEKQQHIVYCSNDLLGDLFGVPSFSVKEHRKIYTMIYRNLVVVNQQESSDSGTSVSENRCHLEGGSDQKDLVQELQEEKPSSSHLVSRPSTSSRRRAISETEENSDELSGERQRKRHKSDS
row,IC50 [nM],SMILES
1,0.395,"COc1ncc(-c2cc3c(n2C(C)C)C(c2ccc(Cl)c(F)c2)N(c2cc(Cl)cn(C)c2=O)C3=O)c(OC)n1 (stereo not drawn) [Example 196, 6-(4-Chloro-3-fluoro-phenyl)-5-(5-chloro-1-methyl-2-oxo-1,2-dihydro-pyridin-3-yl)-2-(2,4-dimethoxy-pyrimidin-5-yl)-1-isopropyl-5,6-dihydro-1H-pyrrolo[3,4-b]pyrrol-4-one]"
2,0.356,"COc1nc(N(C)C)ncc1-c1cc2c(n1C(C)C)C(c1ccc(Cl)c(F)c1)N(c1cc(Cl)cn(C)c1=O)C2=O (stereo not drawn) [Example 197, 6-(4-Chloro-3-fluoro-phenyl)-5-(5-chloro-1-methyl-2-oxo-1,2-dihydro-pyridin-3-yl)-2-(2-dimethylamino-4-methoxy-pyrimidin-5-yl)-1-isopropyl-5,6-dihydro-1H-pyrrolo[3,4-b]pyrrol-4-one]"
3,0.691,"COc1ncc(-c2cc3c(n2C(C)C)C(c2ccc(C#N)c(F)c2)N(c2cc(Cl)cn(C)c2=O)C3=O)c(OC)n1 (stereo not drawn) [Example 198, 4-[5-(5-Chloro-1-methyl-2-oxo-1,2-dihydro-pyridin-3-yl)-2-(2,4-dimethoxy-pyrimidin-5-yl)-1-isopropyl-4-oxo-1,4,5,6-tetrahydro-pyrrolo[3,4-b]pyrrol-6-yl]-2-fluoro-benzonitrile]"
4,0.257,"COc1nc(N(C)C)ncc1-c1cc2c(n1C(C)C)C(c1ccc(C#N)c(F)c1)N(c1cc(Cl)cn(C)c1=O)C2=O (stereo not drawn) [Example 199, 4-[5-(5-Chloro-1-methyl-2-oxo-1,2-dihydro-pyridin-3-yl)-2-(2-dimethylamino-4-methoxy-pyrimidin-5-yl)-1-isopropyl-4-oxo-1,4,5,6-tetrahydro-pyrrolo[3,4-b]pyrrol-6-yl]-2-fluoro-benzonitrile]"
5,0.37,"COc1ncc(-c2cc3c(n2C(C)C)C(c2ccc(C#N)c(F)c2)N(c2cc(Cl)c[nH]c2=O)C3=O)c(OC)n1 (stereo not drawn) [Example 200, 4-[5-(5-Chloro-2-oxo-1,2-dihydro-pyridin-3-yl)-2-(2,4-dimethoxy-pyrimidin-5-yl)-1-isopropyl-4-oxo-1,4,5,6-tetrahydro-pyrrolo[3,4-b]pyrrol-6-yl]-2-fluoro-benzonitrile]"
6,0.25,"COc1nc(N(C)C)ncc1-c1cc2c(n1C(C)C)C(c1ccc(C#N)c(F)c1)N(c1cc(Cl)c[nH]c1=O)C2=O (stereo not drawn) [Example 201, 4-[5-(5-Chloro-2-oxo-1,2-dihydro-pyridin-3-yl)-2-(2-dimethylamino-4-methoxy-pyrimidin-5-yl)-1-isopropyl-4-oxo-1,4,5,6-tetrahydro-pyrrolo[3,4-b]pyrrol-6-yl]-2-fluoro-benzonitrile]"
7,0.201,"COc1ncc(-c2cc3c(n2C(C)C)C(c2ccc(Cl)c(F)c2)N(c2cc(Cl)c[nH]c2=O)C3=O)c(OC)n1 (stereo not drawn) [Example 202, 6-(4-Chloro-3-fluoro-phenyl)-5-(5-chloro-2-oxo-1,2-dihydro-pyridin-3-yl)-2-(2,4-dimethoxy-pyrimidin-5-yl)-1-isopropyl-5,6-dihydro-1H-pyrrolo[3,4-b]pyrrol-4-one]"
8,0.119,"COc1nc(N(C)C)ncc1-c1cc2c(n1C(C)C)C(c1ccc(Cl)c(F)c1)N(c1cc(Cl)c[nH]c1=O)C2=O (stereo not drawn) [Example 203, 6-(4-Chloro-3-fluoro-phenyl)-5-(5-chloro-2-oxo-1,2-dihydro-pyridin-3-yl)-2-(2-dimethylamino-4-methoxy-pyrimidin-5-yl)-1-isopropyl-5,6-dihydro-1H-pyrrolo[3,4-b]pyrrol-4-one]"
9,0.195,"COc1ncc(-c2cc3c(n2C(C)C)C(c2ccc(Cl)cc2)N(c2cc(Cl)c[nH]c2=O)C3=O)c(OC)n1 (stereo not drawn) [Example 204, 5-(5-Chloro-2-oxo-1,2-dihydro-pyridin-3-yl)-6-(4-chloro-phenyl)-2-(2,4-dimethoxy-pyrimidin-5-yl)-1-isopropyl-5,6-dihydro-1H-pyrrolo[3,4-b]pyrrol-4-one]"
